According to patent US20090264415A2 (priority 2004, published 2009):
Read-outs that look alike come from different tables or passages of the source.

Tested on: peripheral blood mononuclear cells (PBMC) stimulated with allogeneic PBMC or EBV-transformed human B cells (RPMI1788)
Assay: Mixed lymphocyte reaction (MLR) assay
Type: cell-based
Method: Pyrido[3,2-d]pyrimidine derivatives were first dissolved (10 mM) in dimethyl-sulfoxide (hereinafter referred as DMSO) and further diluted in culture medium before use for the following in vitro experiments. […] Some pyrido[3,2-d]pyrimidine derivatives described herein were tested in the following mixed lymphocyte reaction (MLR) assay.
Peripheral blood mononuclear cells (hereinafter referred as PBMC) were isolated from heparinized peripheral blood by density gradient centrifugation over Lymphoprep (Nycomed, Maorstua, Norway). Allogeneic PBMC or Eppstein-Barr Virus-transformed human B cells [commercially available under the trade name RPM11788 (ATCC name CCL156)] which strongly express B7-1 and B7-2 antigens were used as stimulator cells after irradiation with 30 Gy. MLR was performed in triplicate wells. After 5 days incubation at 37° C., 1 μCi [^3H]-thymidine was added to each cup. After a further 16 hours incubation, cells were harvested and counted in a β-counter. Inhibition of proliferation by a compound described in some of the present examples was counted while using the formula: [formula] wherein cpm is the thymidine count per minute. The MLR assay is regarded by those skilled in the art as an in vitro analogue of the transplant rejection since it is based on the recognition of allogeneic major histocompatibility antigens on the stimulator leukocytes, by responding lymphocytes.

[1] = Homo sapiens, RPMI-1788, MLR assay of example 319, read-out: MLR IC50
[2] = Homo sapiens, RPMI-1788, 50% suppression of the MLR, [3H]-thymidine incorporation, read-out: MLR

Row | Compound | IC50 [1] [µM] | further results
1 | N#Cc1cccc(-c2ccc3nc(N)nc(N4CCN(C(=O)COc5ccc(Cl)cc5)CC4)c3n2)c1 [Example 414, 2-amino-4-[4-(4-chlorophenoxyacetyl)piperazin-1-yl]-6-(3-cyanophenyl)pyrido-[3,2-d]pyrimidine] | 0.02 | –
2 | Nc1nc(N2CCN(C(=O)COc3ccc(Cl)cc3)CC2)c2nc(-c3c(Cl)cccc3Cl)ccc2n1 [Example 438, 2-amino-4-[4-(4-chlorophenoxyacetyl)piperazin-1-yl]-6-(2,6-dichlorophenyl)-pyrido-[3,2-d]pyrimidine] | 0.7 | –
3 | COCc1cccc(-c2ccc3nc(N)nc(N4CCN(C(=O)COc5ccc(Cl)cc5)CC4)c3n2)c1 [Example 500, 2-amino-4-[N-(4-chlorophenoxyacetyl)-piperazin-1-yl]-6-(3-methoxy-methylphenyl)-pyrido(3,2-d)pyrimidine] | 0.031 | –
4 | COc1ccc(-c2ccc3nc(N)nc(N4CCN(C(=O)COc5ccc(Cl)cc5)CC4)c3n2)cc1Cl [Example 517] | 0.012 | –
5 | CC(C)(C)OC(=O)N1CCN(c2nc(Cl)nc3ccc(-c4ccc(F)cc4)nc23)CC1 [Example 566, 2-chloro-6-(4-fluorophenyl)-4-(4-Boc-piperazino)pyrido[3,2-d]pyrimidine] | > 10 | –
6 | COCCNCc1nc(N2CCN(C(=O)Nc3cccc(C)c3)CC2)c2nc(-c3ccc(F)cc3)ccc2n1 [Example 538, 2-(N-methoxyethylamino)methyl-4-[N-(3-methylphenylcarbamoyl)piperazin-1-yl]-6-(4-fluorophenyl)-pyrido[3,2-d]pyrimidine] | 0.34 | –
7 | CCOC(=O)c1ccc(-c2ccc3nc(N)nc(N4CCN(C(=O)COc5ccc(Cl)cc5)CC4)c3n2)cc1 [Example 510, 2-amino-4-[N-(4-chlorophenoxyacetyl)-piperazin-1-yl]-6-(4-ethoxycarbonylphenyl)-pyrido(3,2-d)pyrimidine] | 0.032 | –
8 | CCc1ccc(-c2ccc3nc(N)nc(N4CCN(C(=O)COc5ccc(Cl)cc5)CC4)c3n2)cc1 [Example 508, 2-amino-4-[N-(4-chlorophenoxyacetyl)-piperazin-1-yl]-6-(4-ethylphenyl)-pyrido(3,2-d)pyrimidine] | 0.012 | –
9 | COc1ccc(-c2ccc3nc(N)nc(N4CC[C@H](NC(=O)Nc5cccc(C)c5)C4)c3n2)cc1OC [Example 221] | – | IC50 [2]: 1.3 µM
10 | Nc1nc(N2CCN(C(=O)COc3ccc4ccccc4c3)CC2)c2nc(-c3ccc(F)cc3)ccc2n1 [Example 383, 2-amino-4-[4-(2-naphthoxyacetyl)piperazin-1-yl]-6-(4-fluorophenyl)-pyrido[3,2-d]pyrimidine] | 0.5 | –
11 | Nc1nc(N2CCN(C(=O)COc3ccc(Cl)cc3Cl)CC2)c2nc(-c3ccc(F)cc3)ccc2n1 [Example 386, 2-amino-4-[4-(2,4-dichlorophenoxyacetyl)piperazin-1-yl]-6-(4-fluorophenyl)-pyrido[3,2-d]pyrimidine] | 0.4 | –
12 | CCOc1ccc(-c2ccc3ncnc(N4CCN(C(=O)Nc5cccc(C)c5)CC4)c3n2)cc1F [Example 559, 4-[(3-methylphenylcarbamoyl)-piperazin-1-yl]-6-(3-fluoro-4-ethoxyphenyl)pyrido[3,2-d]pyrimidine] | 0.178 | –
13 | COc1ccc(Cl)c(Nc2nc(N)nc3ccc(-c4ccc(OC)c(OC)c4)nc23)c1 [Example 30, 2-amino-4-(2-chloro-5-methoxy-anilino)-6-(3,4-dimethoxyphenyl)pyrido[3,2-d]pyrimidine] | – | IC50 [2]: 10 µM
14 | Nc1nc(N2CCN(C(=O)CC(=O)Nc3ccc(Cl)cc3)CC2)c2nc(-c3ccc(F)cc3)ccc2n1 [Example 490, 2-amino-4-[4-(4-chlorophenylcarbamoyl-acetyl)piperazin-1-yl]-6-(4-fluorophenyl)-pyrido[3,2-d]pyrimidine] | 0.34 | –
15 | COc1ccc(-c2ccc3nc(Cl)nc(N4CCN(C(=O)Nc5cccc(C)c5)CC4)c3n2)cc1OC [Example 14] | – | IC50 (50% suppression of the MLR, [3H]-thymidine incorporation, read-out: MLR): 0.066 µM
16 | CC(=O)Nc1nc(-c2nc[nH]n2)c2nc(-c3ccc(Cl)c(Cl)c3)ccc2n1 [Example 145, 2-acetamido-4-(1,2,4-triazolyl)-6-(3,4-dichloro-phenyl)pyrido-[3,2-d]pyrimidine] | – | IC50 [2]: 5.3 µM
